Data from article PMC13077603, “Fluorine‐18‐Labeled Nucleotide Analogs Targeting Ecto‐5'‐Nucleotidase (CD73) for Positron Emission Tomography Imaging of Solid Tumors” (Angewandte Chemie (International Ed. in English), 2026).
One block for each compound: values may come before it.

Columns and labels:
[1] = PET/gamma counter biodistribution in healthy mice; assay type: in vivo, C57BL/6 WT mice
Procedure: Next, biodistribution studies of compounds [^18F]1 and [^18F]2 were performed in female C57BL/6 WT mice. Dynamic (0–90 min), static (77–90 min), and late (240–260 min) scans were performed in a small animal PET scanner. Each PET scan was combined with computer tomography (CT). In the case of [^18F]2, […] of the tracer was excreted within the first 30 min via renal (19%ID) and hepatobiliary (60%ID, Figure 5A–C) routes. After 90 min, most of the tracer was found in the intestine, gallbladder, bladder (urine), and liver, while only 0.3 ± 0.1 %ID/mL of the radiosignal was detected in the blood at that time point (Figure 5B, C). Concentrations in the lung, heart, muscle, and brain were also relatively low. Nevertheless, during the first 3 min, the tracer was distributed within the whole body, reaching every tissue (Figure 5A).
The radiotracer [^18F]1 was injected into the tail vein, entered the heart, and was subsequently distributed throughout the whole body. […] Nearly no tracer accumulated in brain and urinary bladder, facilitating a favorable signal‐to‐noise ratio. We prolonged the imaging and performed an additional PET scan after 260 min to further increase the signal‐to‐background ratio. In all investigated residual organs (kidney, lung, heart, liver, and spleen), [^18F]1 was present even after 260 min, indicating a favorable biodistribution and high metabolic stability in vivo (Figure 5F).
Adult C57bl/6 (biodistribution study, 19.8±1.3 g) or tumor-bearing NSG mice (22.2±2.2 g) were anesthetized by isoflurane/O2, and one lateral tail vein was cannulated using a 27 G needle. A respective radiotracer (~ 390 kBq/g body weight) was injected as a bolus via the tail vein, and subsequent PET scanning was performed. A ~1000-fold excess of unlabeled JMS0414 (14 for [^18F]MRS-4648 ([^18F]2)), unlabeled PSB-19427 (1), or PSB-12651 (15) (for [^18F]PSB-19427 ([^18F]1)) was injected into a subgroup of tumor-bearing mice 10 min before radiotracer injection in the blocking studies. PET imaging studies were carried out using a submillimeter high resolution (0.7 mm full width at half-maximum) small animal scanner (32 module quadHIDAC, Oxford Positron Systems Ltd., Oxford, UK) with a uniform spatial resolution (<1 mm) over a large cylindrical field (165 mm diameter, 280 mm axial length). List-mode data were acquired for 90 min and reconstructed into dynamic time frames using an iterative reconstruction algorithm. In a subgroup of mice, measurements were complemented by late time point PET scans for 20 min 4 h after injection. Subsequently, after PET acquisitions, the scanning bed was transferred to the computed tomography (CT) scanner (Inveon, Siemens Medical Solutions, U.S.), and a CT acquisition with a spatial resolution of 80 μm was performed for each mouse. Final acquisitions were performed as contrast-enhanced CT with i.v. injection of iopromid (Ultravist®370). Reconstructed image data sets were coregistered based on extrinsic markers attached to the multimodal scanning bed, and the in-house developed image analysis software MEDgical (EIMI) was used for quantification. Three-dimensional volumes of interest (VOIs) were defined over the respective organs in CT data sets, transferred to the coregistered PET data, and analyzed quantitatively. Regional uptake was calculated as the percentage of injected dose by dividing counts per min (cpm) in the VOI by total counts in the mouse multiplied by 100 (%ID/mL). The clearance of the radiotracers was calculated based on the PET results. PET imaging studies using [^18F]FDG were performed analogously with a few variations. List-mode data were acquired for 60-75 min after tracer injection and reconstructed using an iterative reconstruction algorithm. Additionally, the scanned mice remained alive after PET and CT scans and were used the next day for imaging experiments with [^18F]PSB-19427 ([^18F]1) for direct comparison of [^18F]FDG and [^18F]PSB-19427 ([^18F]1). […]

[2] = molecular target: T1, Mouse membrane‐bound CD73 (membrane preparation of 4T1.2 breast cancer cell line) (Mus musculus, UniProt Q61503); experiment: CD73 enzyme inhibition assay, mouse membrane-bound CD73; assay type: biochemical; settings: membrane preparation of mouse 4T1.2 breast cancer cell line, Km 67.6 µM, substrate AMP (5 µM)
T1 construct: endogenous in cells; host or cells: 4T1.2 mouse breast cancer cell line, membrane preparation (as named in the result head)
T1 sequence (Q61503 29-576): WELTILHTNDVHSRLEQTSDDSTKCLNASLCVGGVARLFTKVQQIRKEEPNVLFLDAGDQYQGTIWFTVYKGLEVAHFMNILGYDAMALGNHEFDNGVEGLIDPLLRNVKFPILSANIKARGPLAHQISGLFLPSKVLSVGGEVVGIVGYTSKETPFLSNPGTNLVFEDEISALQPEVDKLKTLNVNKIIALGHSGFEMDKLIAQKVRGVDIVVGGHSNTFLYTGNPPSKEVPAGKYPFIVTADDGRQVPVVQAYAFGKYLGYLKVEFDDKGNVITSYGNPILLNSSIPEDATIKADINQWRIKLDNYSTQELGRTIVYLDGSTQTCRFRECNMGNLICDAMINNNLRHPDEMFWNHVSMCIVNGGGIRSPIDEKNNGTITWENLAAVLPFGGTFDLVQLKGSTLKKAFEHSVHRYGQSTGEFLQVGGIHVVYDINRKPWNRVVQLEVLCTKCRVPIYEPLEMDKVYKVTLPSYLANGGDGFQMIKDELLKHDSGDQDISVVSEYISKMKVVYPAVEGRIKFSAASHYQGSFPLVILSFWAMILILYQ
Procedure: Both compounds were evaluated for metabolic stability in mouse liver microsomes (MLM) and plasma protein binding (PPB) (Table 1).
The CD73 enzyme inhibition assay of recombinant soluble CD73, membrane-bound human CD73, soluble rat CD73 and mouse CD73 was performed as previously described.^[16,35^]

Hepatobiliary excretion route ([1]; at 90 min p.i.): 37 %ID
Radiosignal proportion in the blood ([1]; at 90 min p.i.): 18.2% ± 1.7 %ID/g
Renal excretion route ([1]; time not given): 2 %ID
Structure (SMILES): CCCN(Cc1ccc(-c2cn(CC[18F])nn2)cc1)c1nc(Cl)nc2c1ncn2[C@@H]1O[C@H](COP(=O)(O)CP(=O)(O)O)[C@@H](O)[C@H]1O [[^18F]1, [^18F]-[((2R,3S,4R,5R)-5-{2-chloro-6-[(4-{1-[2-(fluoro)ethyl]-1H-1,2,3-triazol-4-yl}benzyl)-(propyl)amino]-9H-purin-9-yl}-3,4-dihydroxytetrahydrofuran-2-yl)methoxy]methylene-bisphosphonic acid]

Radiosignal in blood ([1]; after 90 min): 0.3 ± 0.1 %ID/mL
Hepatobiliary excretion ([1]; within the first 30 min): 60 %ID
Renal excretion ([1]; within the first 30 min): 19 %ID
Fraction of tracer excreted ([1]; within the first 30 min, i.v., female C57BL/6 WT mice): > 95%
Structure (SMILES): Cn1c(=O)n([C@@H]2O[C@H](COP(=O)(O)CP(=O)(O)O)[C@@H](O)[C@H]2O)cc/c1=N/OCc1ccc(-c2cn(CC[18F])nn2)cc1 [[^18F]2, [^18F]-{[(2R,3S,4R,5R)-5-(4-{[(4-{1-[2-(fluoro)ethyl]-1H-1,2,3-triazol-4-yl}benzyl)-oxy]imino}-3-methyl-2-oxo-3,4-dihydropyrimidin-1(2H)-yl)-3,4-dihydroxytetra-hydrofuran-2-yl]methoxy}methylenebisphosphonic acid]

Ki [2]: 47.8 nM
Structure (SMILES): CCCN(Cc1ccc(-c2cn(CCF)nn2)cc1)c1nc(Cl)nc2c1ncn2[C@@H]1O[C@H](COP(=O)(O)CP(=O)(O)O)[C@@H](O)[C@H]1O [compound 1]
